Results as given in ChEMBL document CHEMBL5653607, “KN-62, 1-[N,O-bis(5-isoquinolinesulfonyl)-N-methyl-L-tyrosyl]-4-phenylpiperazi ne, a specific inhibitor of Ca2+/calmodulin-dependent protein kinase II” (J Biol Chem, 1990).
pIC50, pKi: −log10 of the molar value. Calls of active or inactive are those of the source. The calls are words filed in the database; no cut-off is given here.

Legend:
[1] = Inhibition of Ca2+/CaM kinase II (unknown origin); set-up: species or system Homo sapiens
[2] = Inhibition of MLC (unknown origin) assessed as inhibition constant; set-up: species or system Homo sapiens
[3] = Inhibition of Ca2+/CaM kinase II (unknown origin) assessed as inhibition constant; set-up: species or system Homo sapiens
[4] = species: Homo sapiens; test: Inhibition of Ca2+/CaM kinase II (unknown origin) at 1 uM in presence of [gamma-33P]ATP relative to control
[5] = species: Gallus gallus; test: Inhibition of chicken gizzard MLC at 45 uM in presence of [gamma-33P]ATP relative to control
[6] = target: Protein kinase C (PKC) (Homo sapiens) (UniProt O94806+P41743+P17252+P05129+Q05655+P05771+Q05513+Q02156+P24723+Q15139+Q04759); test: Inhibition of protein kinase C (unknown origin) at 45 uM relative to control; assay type: protein assay
[7] = target: cAMP-dependent protein kinase (PKA) (Homo sapiens) (UniProt P22694+P17612+P22612); test: Inhibition of protein kinase A (unknown origin) at 45 uM relative to control; assay type: protein assay
[8] = Competitive inhibition of rat brain Ca2+/CaM kinase II assessed as inhibition constant in presence of [gamma-33P]ATP and varying concentration of calmodulin; assay type: tissue-based
[9] = species: Rattus norvegicus; test: Competitive inhibition of rat brain Ca2+/CaM kinase II at 0.5 to 2.5 uM in presence of calmodulin and varying concentration of [gamma-33P]ATP; assay type: tissue-based; settings: dose 0.5-2.5 µM
[10] = target: Calcium/calmodulin-dependent protein kinase type II subunit alpha (Rattus norvegicus, UniProt P11275); test: Inhibition of rat brain Ca2+/CaM kinase II alpha subunit autophosphorylation measured after 2 mins in presence of [gamma-33P]ATP by SDS-PAGE analysis; assay type: tissue-based
Calcium/calmodulin-dependent protein kinase type II subunit alpha, sequence (P11275 whole entry): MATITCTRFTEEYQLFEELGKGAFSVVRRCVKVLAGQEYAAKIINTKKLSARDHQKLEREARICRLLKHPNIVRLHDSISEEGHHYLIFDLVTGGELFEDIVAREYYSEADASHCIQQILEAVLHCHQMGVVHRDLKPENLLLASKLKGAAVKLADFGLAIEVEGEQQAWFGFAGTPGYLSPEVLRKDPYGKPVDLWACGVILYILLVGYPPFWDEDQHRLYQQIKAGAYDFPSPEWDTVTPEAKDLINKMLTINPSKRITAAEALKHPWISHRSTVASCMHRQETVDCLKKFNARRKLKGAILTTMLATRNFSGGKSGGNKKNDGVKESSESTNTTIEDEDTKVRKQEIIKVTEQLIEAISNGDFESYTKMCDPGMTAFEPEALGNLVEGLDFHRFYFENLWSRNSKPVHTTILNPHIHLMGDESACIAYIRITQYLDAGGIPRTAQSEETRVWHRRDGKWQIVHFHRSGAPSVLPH

[11] = target: Calcium/calmodulin-dependent protein kinase type II subunit beta (Rattus norvegicus, UniProt P08413); test: Inhibition of rat brain Ca2+/CaM kinase II beta subunit autophosphorylation measured after 2 mins in presence of [gamma-33P]ATP by SDS-PAGE analysis; assay type: tissue-based
Calcium/calmodulin-dependent protein kinase type II subunit beta, sequence (P08413 whole entry): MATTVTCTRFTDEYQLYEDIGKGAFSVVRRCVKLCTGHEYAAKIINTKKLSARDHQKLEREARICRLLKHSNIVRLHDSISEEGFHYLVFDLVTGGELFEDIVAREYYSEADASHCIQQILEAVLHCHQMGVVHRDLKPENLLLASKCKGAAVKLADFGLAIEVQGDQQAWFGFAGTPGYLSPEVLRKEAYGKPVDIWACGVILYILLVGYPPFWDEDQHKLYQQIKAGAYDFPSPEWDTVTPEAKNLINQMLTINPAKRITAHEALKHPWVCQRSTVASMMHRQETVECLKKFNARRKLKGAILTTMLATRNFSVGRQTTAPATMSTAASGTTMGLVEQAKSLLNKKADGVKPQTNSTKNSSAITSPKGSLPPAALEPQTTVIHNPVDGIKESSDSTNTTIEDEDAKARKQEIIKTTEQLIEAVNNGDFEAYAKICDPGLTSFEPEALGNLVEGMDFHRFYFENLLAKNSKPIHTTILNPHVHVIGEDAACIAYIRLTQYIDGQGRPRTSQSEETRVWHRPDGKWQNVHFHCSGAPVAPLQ

[12] = tested on: PC12D; test: Inhibition of A23187-induced Ca2+/CaM kinase II 53-kDa autophosphorylation in [32P] orthophosphate labeled rat PC12D cells preincubated with compound for 1 hr followed by A23187 induction and measured after 30 mins by immunoprecipitation method; assay type: cell-based; settings: dose 0.5-1 µM, time 1.5 hrs
[13] = tested on: PC12D; test: Inhibition of A23187-induced Ca2+/CaM kinase II 53-kDa in [32P] orthophosphate labeled rat PC12D cells assessed as increase in phosphorylation at 0.5 to 1 uM preincubated with compound for 1 hr followed by A23187 induction and measured after 30 mins by immunoprecipitation method; assay type: cell-based; settings: dose 0.5-1 µM, time 1.5 hrs
[14] = tested on: PC12D; test: Inhibition of A23187-induced Ca2+/CaM kinase II 40-kDa in [32P] orthophosphate labeled rat PC12D cells assessed as increase in phosphorylation at 0.5 to 1 uM preincubated with compound for 1 hr followed by A23187 induction and measured after 30 mins by immunoprecipitation method; assay type: cell-based; settings: dose 0.5-1 µM, time 1.5 hrs
[15] = species: Rattus norvegicus; test: Binding affinity to rat brain Ca2+/CaM kinase II in presence of [gamma-33P]ATP by Sepharose coupled chromatography based analysis; assay type: tissue-based
[16] = Inhibition of rat brain Ca2+/CaM kinase II autophosphorylation assessed as incorporation of 32P into myosin kDa light chain measured at Pi/mg enzyme at 50 uM incubated for 1 min in presence of [gamma-33P]ATP
[17] = Inhibition of rat brain Ca2+/CaM kinase II autophosphorylation assessed as decrease in exogenous substrate phosphorylation at 50 uM incubated for 1 min in presence of [gamma-33P]ATP relative to control; set-up: scale not given: the % may be the effect or the level left
[18] = Inhibition of rat brain Ca2+/CaM kinase II autophosphorylation measured at Pi/mg enzyme after phosphorylation at 50 uM incubated for 5 min in presence of [gamma-33P]ATP
[19] = species: Rattus norvegicus; test: Inhibition of rat brain Ca2+/CaM kinase II autophosphorylation assessed as decrease in exogenous substrate phosphorylation at 50 uM incubated for 1 min in presence of [gamma-33P]ATP measured after phosphorylation; assay type: tissue-based
[20] = Inhibition of rat brain Ca2+/CaM kinase II independent activity assessed as fold increase in enzyme activity at 50 uM incubated for 1 min

Row | SMILES | pIC50 [1] | pKi [2] | pKi [3] | inhibition [4] [%] | inhibition [5] [%] | inhibition [6] [%] | inhibition [7] [%] | pKi [8] | inhibition [9] | pIC50 [10] | pIC50 [11] | inhibition [12] | Activity [13] | Activity [14] | Activity [15] | Activity [16] [nmol] | Activity [17] [%] | Activity [18] [nmol] | Activity [19] | fold change (FC) [20]
1 | NCCCCCCNS(=O)(=O)c1cccc2c(Cl)cccc12 | 4.82 | 4.74 | 5.12 |  |  |  |  |  |  |  |  |  |  |  |  |  |  |  |  | 
2 | CN([C@@H](Cc1ccc(OS(=O)(=O)c2cccc3cnccc23)cc1)C(=O)N1CCN(c2ccccc2)CC1)S(=O)(=O)c1cccc2cnccc12 |  |  |  | 80 | 12 | 12 | 22 | 6.05 | inactive | 6.35 | 6.00 | Dose-Dependent Effect | Active | inactive | Active | 1.8 | 75 | 8.1 | inactive | 2.5
